The source of these data is patent US8524744B2, “Arylamine ketones, their preparation methods, the pharmaceutical composition containing them and their use” (Institute of Mataria Medica, Chinese Academy of Medical …, priority 2004, dated 2013).

The assay deals with adjuvant arthritis in rat. Briefly: adjuvant arthritis in rat (therapeutic effect). The settings on record: orally 100 mg·kg^−1 during 19-25th day, SD rats. In kind it is in vivo. Here is the method: SD rats (male, 190±10 g) were randomly divided into two groups (treatment and control) with 10 animals for each group. At 0 day 0.1 ml of Freund's complete adjuvant was intracutaneously injected into the right posterior foot. For therapeutic experiment the animals were orally administrated with the compound or solvent during 19-25th day. The perimeter of two ankle joint was measured and the inflammation of anterior foot, ear and tail were judged by scoring for every 3 days until 28 th day.

The structures appear in SMILES notation. Counter-ions that a name gives are not always drawn.

Consider `CCOC(=O)C1CCN(CCC(=O)/C=C/c2ccc(Cl)cc2)CC1` [Compound 3, 5-[(4-Ethoxycarbonyl)piperidyl]-1-(4-chlorophenyl)-1-penten-3-one hydrochloride], for which the “Inhibition (%) of adjuvant arthritis” value runs as follows: (21th day) 31.9%; (23th day) 49.3%; (25th day) 54.5%; (27th day) 59.3%.
